The numbers were not newly measured in US11751566B2, “Growth regulator concentrate and use thereof” (FINE AGROCHEMICALS LIMITED, priority 2013, dated 2023), which cites them from elsewhere.

Turning to `C=C1C[C@]23C[C@@]1(O)CC[C@H]2[C@@]12C=C[C@H](O)[C@@](C)(C(=O)O1)[C@H]2[C@@H]3C(=O)O` [GA3, Gibberellic acid], the “solubility in organic polar solvent (solution as generally provided)” value (organic polar solvent, like an alcohol) is 3-4 wt %.

Take `CCC(=O)C1C(=O)CC(C(=O)O)CC1=O` (centres unmarked) [Prohexadione]: the “solubility in solvents (including water)” value was “low solubility”.
